Assays:
OT-I CTLs = assay: CD8+ T-cell (OT-I CTL) cytotoxicity against antigen-pulsed EL-4 cells, LDH release; type: cell-based, mouse; settings: for cytotoxicity of CD8+ T cells: OT-I CTLs pretreated with compound vs vehicle
Protocol: To generate mature Cytotoxic T lymphocytes (CTLs), splenocytes isolated from Acat1^CKO-OT-I mice or WT OT-I mice were stimulated with OVA257-264 (N4) for 3 days in the presence of 10 ng/ml IL-2. Cells were centrifuged and cultured in fresh medium containing 10 ng/ml IL-2 for 2 more days, after which most of the cells in the culture were CTLs. To measure CD8^+ T-cell cytotoxicity, EL-4 cells were pulsed with 2 nM antigenic peptide (N4, A2, T4, G4, R4 or Catnb) for 30 minutes. After washing EL-4 cells and CTLs three times with PBS, we mixed CTLs and antigen-pulsed EL-4 cells (1×10^5) in the killing medium (phenol free-RPMI 1640, 2% FBS), at the ratio of 1:1, 1:2 and 1:5, respectively. After 4 hours, the cytotoxic efficiency was measured by quantifying the release of endogenous lactate dehydrogenase (LDH) from EL-4 cells using a CytoTox 96 Non-Radioactive Cytotoxicity kit (Promega).
(§1) CD8^+ T cells were pretreated with vehicle (dimethylsulfoxide, DMSO), CP-113,818 or K604. Then the cells were stimulated with 5 μg ml^−1 plate-bound anti-CD3/CD28, and cytokine and cytolytic granule production was studied. Cytotoxicity of OT-I CTLs pretreated with CP-113,818 or K604 or vehicle was also studied.
To study ACAT1 inhibitors in cancer immunotherapies in mice, melanoma-bearing mice were treated with a potent ACAT-1 inhibitor, avasimibe (Ava), or DMSO control, and tumour size and survival were studied. A combined therapy (avasimibe and anti-PD-1) or monotherapies (avasimibe or anti-PD-1) were also studied and compared in treating melanoma. In a lung cancer model, Lewis lung carcinoma-bearing mice were treated with avasimibe or DMSO control, and tumour multiplicity and survival were studied. Cytokine productions of stimulated human (h) CD8^+ T cells pretreated with avasimibe, CP-113,818, or DMSO. CTL cytotoxicity after avasimibe treatment was measured by the LDH assay. OT-I CTLs were pretreated with avasimibe or vehicle for 6 h and then incubated with EL-4 cells pulsed with OVA257-264 peptide for 4 h.

CD8+ T cells = assay: Cytokine and cytolytic granule production of CD8+ T cells stimulated with plate-bound anti-CD3/CD28; type: cell-based, mouse; settings: pretreated with compound vs vehicle (DMSO); stimulated with 5 μg/ml plate-bound anti-CD3/CD28
Protocol: Peripheral T cells were isolated from mouse spleen and draining lymph nodes by a CD8^+ or CD4^+ T cell negative selection kit (Stem cell). To analyse the tumour-infiltrating T cells, tumours were first digested by collagenase IV (sigma), and tumour-infiltrating leukocytes were isolated by 40-70% percoll (GE) gradient centrifugation. To measure the effector function of CD8^+ T cells, the isolated cells were first stimulated with 1 μM ionomycin and 50 ng/ml PMA for 4 hours in the presence of 5 μg/ml BFA, and then stained with PERCP-α-CD8a. Next, cells were fixed with 4% PFA and stained with FITC-α-Granzyme B, APC-α-IFNγ and PE-α-TNFα. In general, to gate the cytokine or granule producing cells, T cells without stimulation or stained with isotype control antibody were used as negative controls. This gating strategy is applicable for most of the flow cytometric analyses. To detect the MDSCs (myeloid-derived suppressor cells) in the tumour, the percoll isolated leukocyte were stained with α-CD45, α-CD11b and α-Ly6G (Gr1), the CD45^+ population was gated, after which the MDSC population (CD11b^+ Gr1^+) in CD45^+ were gated.
as §1

[1] = cited from earlier work
B16F10 melanoma = assay: Skin melanoma mouse model (B16F10), avasimibe therapy; type: in vivo; settings: melanoma-bearing mice; avasimibe 15 mg/kg intraperitoneally every 2 days from Day 10, vs DMSO control
Protocol: (§2) A combined therapy (avasimibe and anti-PD-1) or monotherapies (avasimibe or anti-PD-1) were also studied and compared in treating melanoma. In a lung cancer model, Lewis lung carcinoma-bearing mice were treated with avasimibe or DMSO control, and tumour multiplicity and survival were studied. […] CTL cytotoxicity after avasimibe treatment was measured by the LDH assay. OT-I CTLs were pretreated with avasimibe or vehicle for 6 h and then incubated with EL-4 cells pulsed with OVA257-264 peptide for 4 h.

human CD8+ T cells = assay: Human CD8+ T-cell cytokine production; type: cell-based; settings: PBMCs pretreated 12 hours, then plate-bound α-CD3/α-CD28 for 24 hours; vs DMSO
Protocol: Human peripheral blood mononuclear cells (PBMCs) from healthy donators were stimulated with 5 μg/ml PHA (Sigma) for 2 days and then rested for 1 day. Cells were pretreated with vehicle (DMSO), CP113, 818 or avasimibe for 12 hours and then stimulated with plate-bound α-CD3 (5 μg/ml) and α-CD28 (5 μg/ml) antibodies for 24 hours. Intracellular staining and flow cytometry were used to assess cytokines production of CD8^+ T cells. […] A combined therapy (avasimibe and anti-PD-1) or monotherapies (avasimibe or anti-PD-1) were also studied and compared in treating melanoma. In a lung cancer model, Lewis lung carcinoma-bearing mice were treated with avasimibe or DMSO control, and tumour multiplicity and survival were studied. […] CTL cytotoxicity after avasimibe treatment was measured by the LDH assay. OT-I CTLs were pretreated with avasimibe or vehicle for 6 h and then incubated with EL-4 cells pulsed with OVA257-264 peptide for 4 h.

[2] = test system: Lewis lung carcinoma (LLC); assay: Lewis lung carcinoma (LLC) model, avasimibe therapy; type: in vivo, mouse; settings: avasimibe 15 mg/kg intraperitoneally every 3 days, Day 10 to Day 35, vs DMSO control
Protocol: as §2

CCCCCCCC[C@H](SCCCCCC)C(=O)Nc1c(SC)cc(C)nc1SC [CP-113,818, (S)—N-(2,4-Bis(methylthio)-6-methylpyridin-3-yl)-2-(hexylthio)decanoic acid amide]
cytotoxicity of CD8+ T cells (OT-I CTLs): augmented | cytolytic granule and cytokine productions of CD8+ T cells (CD8+ T cells): augmented

CSc1cc(C)nc(SC)c1NC(=O)CN1CCN(CCSc2nc3ccccc3[nH]2)CC1 [K604, 2-[4-[2-(benzimidazol-2-ylthio)ethyl]piperazin-1yl]-N-[2,4-bis(methylthio)-6-methyl-3-pyridyl]acetamide]
cytotoxicity of CD8+ T cells (OT-I CTLs): augmented | cytolytic granule and cytokine productions of CD8+ T cells (CD8+ T cells): augmented

CC[C@H](C)C(=O)O[C@H]1C[C@@H](C)C=C2C=C[C@H](C)[C@H](CC[C@@H]3C[C@@H](O)CC(=O)O3)[C@H]21 [Lovastatin]
cytolytic granule and cytokine productions of CD8+ T cells (CD8+ T cells): significantly decreased

CCN(CC)CCO[C@H]1CC[C@@]2(C)C(=CC[C@@H]3[C@@H]2CC[C@]2(C)C(=O)CC[C@@H]32)C1 [U18666A]
cytolytic granule and cytokine productions of CD8+ T cells (CD8+ T cells): significantly decreased

CC(C)c1cc(C(C)C)c(CC(=O)NS(=O)(=O)Oc2c(C(C)C)cccc2C(C)C)c(C(C)C)c1 [avasimibe, [2,6-di(propan-2-yl)phenyl] N-[2-[2,4,6-tri(propan-2-yl)phenyl]acetyl]sulfamate]
well tolerated dose ([1]; adult human subjects, four times daily (i.e., 3000 mg/day), Kharbanda et al (2005)): ≥ 750 mg | human safety profile ([1]; clinical trials for treating atherosclerosis): good human safety profile | effector function of mouse CD8+ T cells ex vivo (OT-I CTLs; OT-I CTLs pretreated with avasimibe or vehicle for 6 h, EL-4 cells pulsed with OVA257-264 for 4 h, LDH assay): enhance | survival time (B16F10 melanoma): prolonged | tumour growth (B16F10 melanoma): inhibited | cytokine production of human CD8+ T cells (human CD8+ T cells): enhanced | antitumor effect in Lewis lung carcinoma (tumour multiplicity and survival) [2]: good antitumor effect
